These results are taken from PubChem BioAssay (NCI).

Several values for one entry are separate records, joined by “and”; a condition that tells them apart may be missing. Equal values may be shown once.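 Compound exposure: 48 hours, 5 concentrations, 96-well plates. The concentration for 50% growth inhibition is given as GI50. TGI is the concentration that stops growth completely.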

Some test systems named below: HS 578T breast; BT-549 breast; T-47D breast; OVCAR-3 ovarian; SF-539 CNS; NCI-H23 lung; NCI/ADR-RES ovarian; K-562 leukemia; SF-295 CNS.
Assay in all cases: growth of human tumour cells (NCI), 48 h

In the case of `CCC(=O)NC(Nc1cc(C)on1)(C(F)(F)F)C(F)(F)F`, the TGI with HS 578T breast, in the test on BT-549 breast, in the test with T-47D breast, with OVCAR-3 ovarian, in the test with SF-539 CNS and in the test with NCI-H23 lung was more than 100 µM in each case. Besides, the TGI in the test with NCI/ADR-RES ovarian and with K-562 leukemia was more than 100 µM each time.

On to `COC(=O)[C@@H](O)[C@](O)(CCC(C)C)C(=O)O[C@@H]1C(OC)=C[C@]23CCCN2CCc2cc4c(cc2[C@H]13)OCO4`, for which the TGI came to 5.68 µM with SF-295 CNS; 7.15 µM in the test with OVCAR-3 ovarian; 3.16 µM in the test on SF-539 CNS; 5.7 µM in the test on NCI-H23 lung; 71.4 µM with NCI/ADR-RES ovarian; 23 µM in the test with K-562 leukemia.

On to `COc1ccc(/C=c2\sc3n(c2=O)CCN=3)cc1`, for which the TGI in the test with SF-295 CNS, in the test on OVCAR-3 ovarian, with SF-539 CNS, in the test on NCI-H23 lung and in the test with K-562 leukemia was more than 100 µM each time.

`Cc1ccc(NC(=O)CC2Sc3ccccc3NC2=O)cc1C` (stereo not given): the TGI in the test with SF-295 CNS, in the test with OVCAR-3 ovarian, with SF-539 CNS, in the test on NCI-H23 lung and in the test on K-562 leukemia was more than 100 µM throughout.

Consider `COc1ccc2[nH]cc(/C=C(/C)c3ccncc3)c2c1`, for which the GI50 with SF-295 CNS was 3.63 µM; with OVCAR-3 ovarian, 4.16 µM; in the test on SF-539 CNS, 4.46 µM; with NCI-H23 lung, 7.07 µM; in the test with NCI/ADR-RES ovarian it was 2.11 µM. The TGI in the test with SF-295 CNS is 12.1 µM and 32.8 µM; in the test on OVCAR-3 ovarian it was more than 100 µM; in the test with SF-539 CNS, 19.9 µM and > 100 µM; with K-562 leukemia it was more than 100 µM.

With `CC1=C(Cl)C=CP(=O)(Oc2ccccc2)C1` (stereo not given), the TGI with SF-295 CNS is more than 100 µM; in the test on OVCAR-3 ovarian, more than 100 µM; in the test on NCI-H23 lung, more than 100 µM; with K-562 leukemia it was more than 10 µM.

For `Nc1c(S(=O)(=O)O)cc2cc(S(=O)(=O)O)ccc2c1N=Nc1ccc(-c2ccc(N=Nc3c(N)c(S(=O)(=O)O)cc4cc(S(=O)(=O)O)ccc34)c(S(=O)(=O)O)c2)cc1`, the TGI with SF-295 CNS, in the test with OVCAR-3 ovarian, in the test on SF-539 CNS, in the test with NCI-H23 lung, with NCI/ADR-RES ovarian and in the test with K-562 leukemia was more than 100 µM each time.

On to `COc1ccc(CN2C(=O)/C(=C\c3cc(OC)c(OC)c(OC)c3)c3ccccc32)cc1`, for which the GI50 in the test on HS 578T breast is 3.78 µM; in the test with BT-549 breast it was 1.08 µM; in the test on SF-295 CNS, 3.79 µM; in the test with T-47D breast it was 2.06 µM; in the test with OVCAR-3 ovarian it was 1.62 µM; in the test on SF-539 CNS it was 2.17 µM. The GI50 in the test with NCI-H23 lung is 2.35 µM; in the test on NCI/ADR-RES ovarian, 2.97 µM. Further, the TGI with HS 578T breast was 55.5 µM; in the test with BT-549 breast, 7.53 µM; in the test with SF-295 CNS it was 35.8 µM; with T-47D breast, 7.31 µM; with OVCAR-3 ovarian, 3.22 µM; in the test with SF-539 CNS it was 4.33 µM. Besides, the TGI was 6.43 µM with NCI-H23 lung and more than 100 µM in the test with NCI/ADR-RES ovarian.

On to `N#C/C(=C1/Sc2c(nc[nH]c2=O)N1c1ccccc1)c1nc2ccccc2[nH]1`, for which the TGI in the test with SF-295 CNS, with OVCAR-3 ovarian, with SF-539 CNS, with NCI-H23 lung and in the test with K-562 leukemia was more than 100 µM in each case.

Turning to `O=C1c2cc3c(cc2-c2c1c1ccc(F)cc1c(=O)n2C[C@H](O)[C@@H](O)[C@H](O)CO)OCO3`, the GI50 with BT-549 breast was 0.0687 µM; in the test with T-47D breast, 0.0229 µM; in the test with OVCAR-3 ovarian, 0.0989 µM; in the test with SF-539 CNS, 0.0289 µM; with NCI-H23 lung, 0.046 µM; in the test with K-562 leukemia, 0.0645 µM. Also, the TGI in the test on BT-549 breast was 0.492 µM; with T-47D breast it was 0.15 µM; in the test with OVCAR-3 ovarian it was 0.476 µM; in the test on SF-539 CNS it was 0.138 µM; with NCI-H23 lung, 0.256 µM; in the test with K-562 leukemia, more than 100 µM.

In the case of `CCCCCCCC/C=C\CCCCCCCCCCCC(=O)O`, the TGI with SF-295 CNS was 116 µM; with OVCAR-3 ovarian it was 36.5 µM; in the test on SF-539 CNS, 40.4 µM; in the test on NCI-H23 lung, 80.8 µM; in the test with NCI/ADR-RES ovarian, more than 125 µM; in the test on K-562 leukemia, 47.4 µM.

For `COc1ccc(-n2c(C)nc3ccc(NC(=S)Nc4ccccc4)cc3c2=O)cc1`, the TGI with HS 578T breast, with BT-549 breast, in the test with SF-295 CNS, in the test with T-47D breast, in the test on OVCAR-3 ovarian and in the test with NCI-H23 lung was more than 100 µM in each case. In addition, the TGI in the test on NCI/ADR-RES ovarian and in the test on K-562 leukemia was more than 100 µM throughout.

As for `Nc1nc(SCCC/C=C/I)nc2c1ncn2C1OC(COP(=O)(O)O)C(O)C1O` (stereo not given), the TGI in the test with SF-295 CNS, with OVCAR-3 ovarian, with SF-539 CNS, in the test with NCI-H23 lung and in the test with K-562 leukemia was more than 100 µM in each case.
